Test results as given in ChEMBL document CHEMBL5620360, “Design, synthesis and biological evaluation of 4-(4-aminophenoxy)picolinamide derivatives as potential antitumor agents” (Eur J Med Chem, 2023).

How the values were obtained:
A549 [1] = experiment: cells; settings: Homo sapiens, A549, 72 h
HeLa = experiment: Antiproliferative activity against human HeLa cells assessed as reduction in cell viability incubated for 72 hrs by MTT assay; type: functional, cell-based
MCF7 [2] = experiment: cells; settings: Homo sapiens, MCF7, 72 h
A549 [3] = tested on: A549
MCF7 [4] = tested on: MCF7
A549 [5] = experiment: Induction of apoptosis in human A549 cells assessed as late apoptotic cells at 5 uM measured after 24 hrs by AnnexinV-FITC/PI staining based flow cytometry (reference value: 1.47%); type: functional
A549 [6] = experiment: Induction of apoptosis in human A549 cells assessed as necrotic cells at 5 uM measured after 24 hrs by AnnexinV-FITC/PI staining based flow cytometry (reference value: 4.01%); type: functional
A549 [7] = experiment: Induction of cell cycle arrest in human A549 cells assessed as accumulation of cells at G2 phase at 5 uM incubated for 24 hrs by propidium iodide staining based flow cytometry (reference value: 7.36%); type: functional
A549 [8] = experiment: Induction of apoptosis in human A549 cells assessed as early apoptotic cells at 5 uM measured after 24 hrs by AnnexinV-FITC/PI staining based flow cytometry (reference value: 1.26%); type: functional
A549 [9] = experiment: Induction of cell cycle arrest in human A549 cells assessed as accumulation of cells at G1 phase at 5 uM incubated for 24 hrs by propidium iodide staining based flow cytometry (reference value: 54.46%); type: functional
A549 [10] = experiment: Induction of apoptosis in human A549 cells assessed as viable cells at 5 uM measured after 24 hrs by AnnexinV-FITC/PI staining based flow cytometry (reference value: 93.25%); type: functional; settings: read-out: Activity
A549 [11] = experiment: Induction of cell cycle arrest in human A549 cells assessed as accumulation of cells at S phase at 5 uM incubated for 24 hrs by propidium iodide staining based flow cytometry (reference value: 38.18%); type: functional
[12] = Homo sapiens, HeLa, 72 h, read-out: IC50

| Structure (SMILES) | IC50 (A549 [1]) | IC50 (HeLa; [12]) | IC50 (MCF7 [2]) | further results |
| --- | --- | --- | --- | --- |
| COc1ccc(-n2cc(C(=O)Nc3ccc(Oc4ccnc(C(=O)NCCCN5CCOCC5)c4)c(F)c3)c(=O)c3cccnc32)cc1 | 19.3 µM | 17.4 µM | 30.8 µM | – |
| O=C(NCCCN1CCOCC1)c1cc(Oc2ccc(NC(=O)c3cn(-c4ccc(F)cc4)c4ncccc4c3=O)cc2F)ccn1 | 0.58 µM | 1.57 µM | 4.96 µM | – |
| O=C(Nc1ccc(Oc2ccnc(C(=O)N3CCCC3)c2)c(F)c1)c1cn(-c2ccc(Br)cc2)c2ncccc2c1=O | – | 42.3 µM | 44.3 µM | IC50 (A549 [3]): Not Active |
| O=C(Nc1ccc(Oc2ccnc(C(=O)N3CCCC3)c2)cc1)c1cn(-c2ccc(Cl)cc2)c2ncccc2c1=O | 57.1 µM | 67 µM | 69.8 µM | – |
| CCCNC(=O)c1cc(Oc2ccc(NC(=O)c3cn(-c4ccc(Cl)cc4)c4ncccc4c3=O)cc2F)ccn1 | 45.1 µM | 65.3 µM | 52.9 µM | – |
| O=C(NCCCN1CCOCC1)c1cc(Oc2ccc(NC(=O)c3cn(-c4ccc(Cl)cc4)c4ncccc4c3=O)cc2F)ccn1 | 3.87 µM | 29.4 µM | 39.3 µM | – |
| O=C(Nc1ccc(Oc2ccnc(C(=O)N3CCCC3)c2)c(F)c1)c1cn(-c2ccc(F)cc2)c2ncccc2c1=O | 1.62 µM | 2.13 µM | 2.98 µM | – |
| O=C(Nc1ccc(Oc2ccnc(C(=O)N3CCCC3)c2)c(F)c1)c1cn(-c2ccccc2)c2ncccc2c1=O | – | 60.5 µM | 69.4 µM | IC50 (A549 [3]): Not Active |
| CCCNC(=O)c1cc(Oc2ccc(NC(=O)c3cn(-c4ccc(Br)cc4F)c4ncccc4c3=O)cc2F)ccn1 | 18.7 µM | 41.8 µM | 17.3 µM | – |
| CCCNC(=O)c1cc(Oc2ccc(NC(=O)c3cn(-c4ccc(OC)cc4)c4ncccc4c3=O)cc2)ccn1 | 0.96 µM | 2.01 µM | 2.86 µM | – |
| O=C(NCCCN1CCOCC1)c1cc(Oc2ccc(NC(=O)c3cn(-c4ccc(Br)cc4F)c4ncccc4c3=O)cc2)ccn1 | 9.27 µM | 7.96 µM | 0.83 µM | – |
| O=C(NCCCN1CCOCC1)c1cc(Oc2ccc(NC(=O)c3cn(-c4ccc(Br)cc4)c4ncccc4c3=O)cc2F)ccn1 | 2.91 µM | 4.57 µM | 4.87 µM | – |
| O=C(NCCCN1CCOCC1)c1cc(Oc2ccc(NC(=O)c3cn(-c4ccc(F)cc4)c4ncccc4c3=O)cc2)ccn1 | 4.18 µM | 7.92 µM | 5.75 µM | – |
| O=C(Nc1ccc(Oc2ccnc(C(=O)N3CCCC3)c2)cc1)c1cn(-c2ccc(Br)cc2)c2ncccc2c1=O | – | 75.5 µM | 62.1 µM | IC50 (A549 [3]): Not Active |
| COc1ccc(-n2cc(C(=O)Nc3ccc(Oc4ccnc(C(=O)NCCCN5CCOCC5)c4)cc3)c(=O)c3cccnc32)cc1 | 16.2 µM | 28.3 µM | 29.1 µM | – |
| CCCNC(=O)c1cc(Oc2ccc(NC(=O)c3cn(-c4ccc(F)cc4)c4ncccc4c3=O)cc2F)ccn1 | 19.3 µM | 23.8 µM | 40.7 µM | – |
| CCCNC(=O)c1cc(Oc2ccc(NC(=O)c3cn(-c4ccc(F)cc4)c4ncccc4c3=O)cc2)ccn1 | 0.89 µM | 1.09 µM | 3.01 µM | – |
| O=C(NCCCN1CCOCC1)c1cc(Oc2ccc(NC(=O)c3cn(-c4ccc(F)c(Cl)c4)c4ncccc4c3=O)cc2)ccn1 | 7.88 µM | 39 µM | 43 µM | – |

| Structure (SMILES) | IC50 (A549 [1]) | IC50 (HeLa; [12]) | IC50 (MCF7 [2]) | further results |
| --- | --- | --- | --- | --- |
| CCCNC(=O)c1cc(Oc2ccc(NC(=O)c3cn(-c4ccc(Br)cc4)c4ncccc4c3=O)cc2)ccn1 | – | 65.9 µM | 73.9 µM | IC50 (A549 [3]): Not Active |
| O=C(Nc1ccc(Oc2ccnc(C(=O)N3CCCC3)c2)cc1)c1cn(-c2ccccc2)c2ncccc2c1=O | 47.6 µM | 41.2 µM | 38.1 µM | – |
| O=C(NCCCN1CCOCC1)c1cc(Oc2ccc(NC(=O)c3cn(-c4ccccc4)c4ncccc4c3=O)cc2F)ccn1 | 9.57 µM | 7.02 µM | 23.7 µM | – |
| CCCNC(=O)c1cc(Oc2ccc(NC(=O)c3cn(-c4ccc(Br)cc4)c4ncccc4c3=O)cc2F)ccn1 | 8.01 µM | 35.9 µM | 10.4 µM | – |
| O=C(NCCCN1CCOCC1)c1cc(Oc2ccc(NC(=O)c3cn(-c4ccc(Br)cc4)c4ncccc4c3=O)cc2)ccn1 | 0.74 µM | 9.76 µM | 11 µM | – |
| CCCNC(=O)c1cc(Oc2ccc(NC(=O)c3cn(-c4ccc(Br)cc4F)c4ncccc4c3=O)cc2)ccn1 | – | 80.5 µM | – | IC50 (MCF7 [4]): Not Active; IC50 (A549 [3]): Not Active |
| O=C(Nc1ccc(Oc2ccnc(C(=O)N3CCCC3)c2)c(F)c1)c1cn(-c2ccc(Cl)cc2)c2ncccc2c1=O | 79.3 µM | 75.4 µM | 82.1 µM | – |
| O=C(Nc1ccc(Oc2ccnc(C(=O)N3CCCC3)c2)cc1)c1cn(-c2ccc(F)cc2)c2ncccc2c1=O | 3.47 µM | 5.28 µM | 15 µM | – |
| COc1cc2nccc(Oc3ccc(NC(=O)C4(C(=O)Nc5ccc(F)cc5)CC4)cc3)c2cc1OC [CABOZANTINIB] | 0.62 µM | 1.17 µM | 3.15 µM | Activity (A549 [5]): 4.25%; Activity (A549 [6]): 5.19%; Activity (A549 [7]): 11.66%; Activity (A549 [8]): 2.33%; Activity (A549 [9]): 56.19%; viability at 5 µM (A549 [10]): 88.2%; Activity (A549 [11]): 32.15% |
| O=C(Nc1ccc(Oc2ccnc(C(=O)N3CCCC3)c2)c(F)c1)c1cn(-c2ccc(F)c(Cl)c2)c2ncccc2c1=O | 0.98 µM | 1.28 µM | 2.96 µM | – |
| CCCNC(=O)c1cc(Oc2ccc(NC(=O)c3cn(-c4ccc(F)c(Cl)c4)c4ncccc4c3=O)cc2F)ccn1 | 34.8 µM | 43.6 µM | 39 µM | – |
| CCCNC(=O)c1cc(Oc2ccc(NC(=O)c3cn(-c4ccccc4)c4ncccc4c3=O)cc2F)ccn1 | 67.2 µM | 75 µM | 74 µM | – |
| COc1ccc(-n2cc(C(=O)Nc3ccc(Oc4ccnc(C(=O)N5CCCC5)c4)cc3)c(=O)c3cccnc32)cc1 | 33.6 µM | 57 µM | 62.1 µM | – |
| O=C(Nc1ccc(Oc2ccnc(C(=O)N3CCCC3)c2)c(F)c1)c1cn(-c2ccc(Br)cc2F)c2ncccc2c1=O | – | 50.8 µM | – | IC50 (MCF7 [4]): Not Active; IC50 (A549 [3]): Not Active |
| CCCNC(=O)c1cc(Oc2ccc(NC(=O)c3cn(-c4ccc(OC)cc4)c4ncccc4c3=O)cc2F)ccn1 | 51.1 µM | 67.5 µM | 71.3 µM | – |
| O=C(NCCCN1CCOCC1)c1cc(Oc2ccc(NC(=O)c3cn(-c4ccc(Br)cc4F)c4ncccc4c3=O)cc2F)ccn1 | 1.18 µM | 1.85 µM | 3.51 µM | – |
| O=C(Nc1ccc(Oc2ccnc(C(=O)N3CCCC3)c2)cc1)c1cn(-c2ccc(Br)cc2F)c2ncccc2c1=O | 56.8 µM | – | 78.5 µM | IC50 (HeLa; hela): Not Active |
| COc1ccc(-n2cc(C(=O)Nc3ccc(Oc4ccnc(C(=O)N5CCCC5)c4)c(F)c3)c(=O)c3cccnc32)cc1 | – | – | 77 µM | IC50 (HeLa; hela): Not Active; IC50 (A549 [3]): Not Active |
